Source: patent US6841538B1, “Combination therapy using nucleic acids and radio therapy” (priority 1998, dated 2005)

How the values were obtained:
tumor cells = conditions: Son and Huang 1994; cited from earlier work
MCA 207 tumor [1] = experiment: Tumor growth, combination with pINEX-IL-12 in INEX 324; type: in vivo, C57 BL/6 mice; conditions: subtherapeutic vincristine (OncoTCS 0.5 mg/kg i.v.) then INEX 324 pINEX-IL-12 100 μg DNA i.v.
Procedure: C57 BL/6 mice are seeded subcutaneously with MCA 207 tumor cells. Tumor seeding is performed by standard techniques. Mice were seeded subcutaneously on the hip flank with 100,000 MCA-207 fibrosarcoma tumor cells by sub-cutaneous injection on day zero.
On days 7-10, when tumors had developed to useable sizes, mice were injected i.v. via tail vein with approximately 0.5 mg/kg of OncoTCS ([…]).
At 8, 16, 24, 30, 36, 42 or […] after OncoTCS treatment, the mice were injected i.v. via tail vein with INEX 324 (100 μg DNA pINEX-IL-12 with about 500 μg lipid all in about 200 μL total volume). Control mice received HBS.

MCA 207 tumor [2] = experiment: Tumor growth, combination with INEX 303 pINEX-TK10 and ganciclovir; type: in vivo, C57 BL/6 mice; conditions: OncoTCS 0.5 mg/kg i.v. then INEX 303 pINEX-TK10 i.v. and ganciclovir i.p.
Procedure: C57 BL/6 mice are seeded subcutaneously with MCA 207 tumor cells. Tumor seeding is performed by standard techniques. Mice are seeded subcutaneously on the hip flank with 100,000 MCA-207 fibrosarcoma tumor cells by […] injection on day zero. The tumor cells are cultivated and prepared according to standard techniques using RPMI media with 10% Fetal Bovine Serum (see, for example, Current Protocols in Molecular Biology, Eds. Ausubel, F. M., et al.)
At 8, 16, 24, 30, 36, 42 or […] after OncoTCS treatment, the mice are injected i.v. via tail vein with INEX 303 containing pINEX-TK10 prepared as described herein (100 μg DNA with about 500 μg lipid all in about 200 μL total volume). Control mice receive HBS.
1 mg ganciclovir, which is in 200 μL PBS (approximately 50 mg/kg; commercially available from Hoffman La Roche) is administered by intraperitoneal injection 12 h and 24 h after SPLP administration.

HeLa-luc cells = experiment: Luciferase gene expression in stably transfected HeLa-luc cells; type: cell-based, human; conditions: HeLa-luc, 0, 6 and 24 hours after arrest vs untreated control cells
Procedure: SK-OV-3 cells human ovarian tumor cells, ATCC) were cultured in RPMI 1640 media (StemCell Technologies, Vancouver, B.C.) supplemented with 10% fetal bovine serum (Intergen). HeLa-luc cells were stably transfected with a luciferase reporter plasmid and cultured in Dulbecco's modified Eagle medium (StemCell Technologies, Vancouver, B.C.) supplemented with 10% fetal bovine serum and 400 μg/mL Geneticin (Gibco BRL).
(§1) SK-OV-3 or HeLa-luc cells were seeded at a density of 30,000 cells per well in a 24 well plate in growth media 24 hours prior to treatment with aphidicolin. Aphidicolin (Sigma) was reconstituted in phosphate buffered saline containing 0.5% DMSO. Cells were incubated with aphidicolin at a final concentration of 5 μg/mL in 1 mL of media per well for 16 hours prior to transfection. Transfection was accomplished by the addition of 0.5 μg of formulated DNA to each well.
(§2) Luciferase assays were performed using the Luciferase Assay System kit (Promega, Madison, Wis.) according to the manufacturer's protocol. […] A standard curve was determined by assaying 20 μL of serial dilutions of a 1 mg/mL luciferase standard (Boehringer Mannheim). […] Absorbance was monitored at 570 nm (Dynatech MR5000 plate reader) and protein content calculated using a standard curve of varying concentrations of BSA.

SK-OV-3 cells [3] = experiment: Lipid mediated transfection (lipoplexes or SPLPs), luciferase activity; type: cell-based, human; conditions: for increase in luciferase expression, (+/−) vs (−/−) culture: peak; for difference in luciferase activity between (−/−) and (+/+) cultures: 26 hrs
Procedure: Lipoplexes were prepared as follows: All reagents were sterile and cooled to 4° C. prior to complex preparation. A solution containing 62 μM dioleoyldimethylammonium chloride: 1,2-sn-dioleoylphosphatidylethanolamine (DODAC:DOPE) large unilamellar vesicles (LUVs) and a solution containing 10 μg/mL plasmid DNA were prepared in distilled water. The DNA was added to an equal volume of lipid dropwise, while vortexing. The solution was incubated on ice for 30 minutes prior to transfection. The resulting lipoplexes contained a final DNA concentration of 0.5 μg/100 μL and the cationic lipid:DNA (+:−) charge ratio was 1:1.
Plasmid containing a therapeutic gene was encapsulated as SPLP using the detergent dialysis method of INEX 351. The SPLP contained 42.5:42.5:15 mol % of DOPE:DODAC:1-O-[2′-(w-methoxypolyethyleneglycol) succinoyl]-2-N-octoylsphingosine, (PEG-CerC8), at a lipid:DNA ratio of 15:1 (w/w). SPLPs were separated from empty liposomes by centrifugation through a discontinuous sucrose gradient.
as §1
Luciferase assays were performed using the Luciferase Assay System kit (Promega, Madison, Wis.) according to the manufacturer's protocol. Cell samples were washed twice with PBS, lysed by incubation with 200 μL of lysis buffer (0.1% triton in 250 mM NaH2PO4, pH 7.4) for 20 min. 20 μL of cell lysate was assayed (in duplicate) using a mL3000 microtiter plate luminometer (Dynex Technologies). A standard curve was determined by assaying 20 μL of serial dilutions of a 1 mg/mL luciferase standard (Boehringer Mannheim). Cell lysate was assayed for protein content using the bicinchoninic acid (BCA) colorimetric method. Briefly, in a 96 well plate, 95 μL of water and 100 μL of the Micro BCA protein assay working reagent (Pierce) were added to 5 μL of cell lysate. The plates were shaken on a rotary platform at 100 rpm for 10 minutes before being incubated at 37° C. for 2 hours. Absorbance was monitored at 570 nm (Dynatech MR5000 plate reader) and protein content calculated using a standard curve of varying concentrations of BSA.

SK-OV-3 cells [4] = experiment: Semliki Forest Virus (SFV-luc) mediated luciferase gene expression; type: cell-based, human; conditions: SFV-luc m.o.i. 0.5
Procedure: as §1
Luciferase cDNA was cloned into the multiple cloning site of pSFV 1-3. Recombinant virus encoding luciferase was prepared according to the protocol described by Liljestrom and Garoff (Maniatis, et al., Molecular Cloning, Cold Spring Harbor, N.Y., 1981, pp. 93-94). Prior to infection of SK-OV-3 cells, virus particles were activated in 0.5 mg/mL chymotrypsin for 30 minutes at room temperature. Chymotrypsin was inactivated by the addition of aprotinin to a final concentration of 0.67 mg/mL. […]
as §2

SK-OV-3 cells [5] = experiment: Uptake of YOYO-1 labeled plasmid lipoplexes by flow cytometry; type: cell-based, human; conditions: aphidicolin 5 μg/mL 16 hr; vs control cells
Procedure: as §1
For the plasmid DNA uptake experiments, the method previously described (Zabner, et al., J. Biol. Chem., 270:18997-19007 (1995); Tseng, et al., Biotechnol. Bioeng., 50:548-554 (1996)) using fluorescently labeled DNA and flow cytometry was used with the following modifications. Plasmid DNA was fluorescently labeled by incubation with YOYO-1 iodide (Molecular Probes, Eugene, Oreg.) at a dye:basepair ratio of […] for 10 minutes at 4° C. The sample was then dialyzed twice against autoclaved deionized water.
Lipoplexes were prepared using YOYO-1 labeled DNA and incubated with cells. […] Fluorescence was measured in the FL1 channel (λemission=530+/−15 nm) of a FACSort flow cytometer (Becton-Dickinson, San Jose, Calif.) equipped with an Ar- ion laser (λexcitation=488 nm). Data was collected from 10,000 cells and analyzed for fluorescence using CellQuest software.

SK-OV-3 cells [6] = experiment: Cell cycle status by propidium iodide flow cytometry; type: cell-based, human
Procedure: as §1
The cell cycle status of cultures was determined by flow cytometry of permeabilized cells that were stained with propidium iodide. Prior to harvesting, media was aspirated and the cells were washed twice with 2 mL phosphate buffered saline (PBS). After washing, 2-3 drops of pre-warmed trypsin-EDTA (0.25% trypsin, 1 mM EDTA; Gibco BRL) was added to each well and the plate was incubated at 37° C. until the cells had detached from the plate. Trypsin was inactivated by the addition of 1.5 mL of cold media; The samples were transferred to 6 mL polystyrene tubes (Becton-Dickenson, San Jose, Calif., USA) and centrifuged at 2000 rpm for 5 min (Beckman GS-6R, rotor GH3.8). Cells were fixed and permeabilized by incubation for 10 min in 70% methanol (pre-chilled to −70° C.). Samples were then centrifuged at 2000 rpm for 5 min and the cells were incubated in 0.5 mL of 150 μg/mL propidium iodide (Molecular Probes, Eugene, Oreg.) in PBS for 30 minutes on ice in the dark prior to analysis by flow cytometry. 5,000 cells were analyzed in the FL2 channel (λemission=585+/−21 nm) of a FACSort flow cytometer (Becton-Dickinson, San Jose, Calif.) equipped with an Ar- ion laser (λexcitation=488 nm)

[7] = (+/−) cultures, 1 hr exposure, either formulation

| Compound | expression of plasmid delivered directly to tumor cells after drug treatment (tumor cells) | tumor growth (MCA 207 tumor [1]) | tumor growth vs HSV-TK/ganciclovir system alone (MCA 207 tumor [2]) | effect on level of luciferase gene expression (HeLa-luc cells) | time after removal of aphidicolin at which luciferase expression begins to increase (SK-OV-3 cells [3]; [7]) | time after removal of aphidicolin of maximum luciferase expression (SK-OV-3 cells [3]; [7]) | increase in luciferase expression, (+/−) vs (−/−) culture (SK-OV-3 cells [3]; SPLPs, 1 hr exposure) | difference in luciferase activity between (−/−) and (+/+) cultures (SK-OV-3 cells [3]; SPLPs) | increase in luciferase expression, (+/−) vs (−/−) culture (SK-OV-3 cells [3]; lipoplexes, 1 hr exposure) | decrease in luciferase gene expression, (+/+) culture (SK-OV-3 cells [3]; lipoplexes, 24 hrs continuous exposure, continued aphidicolin) | luciferase expression of (+/−) cultures vs (−/−) control (SK-OV-3 cells [3]; lipoplexes, 24 hrs, aphidicolin removed) | difference in luciferase activity between (−/−) and (+/+) cultures (SK-OV-3 cells [3]; lipoplexes) | pattern of SFV-luc gene expression between (−/−), (+/−) and (+/+) cultures (SK-OV-3 cells [4]) | effect of cell cycle arrest on internalization of lipoplexes (SK-OV-3 cells [5]) | cells in the G2/M phase, (+/−) culture (SK-OV-3 cells [6]; 16 hrs after removal of aphidicolin block) | cells progressed into the G1 phase after mitotic division, (+/−) culture (SK-OV-3 cells [6]; 22 hrs after removal of aphidicolin block) | cells remaining arrested in the G1 phase, (+/+) culture (SK-OV-3 cells [6]; end of the 24 incubation with lipoplexes, continued aphidicolin) | cells remaining arrested in the G1 phase, (+/+) cultures (SK-OV-3 cells [6]; throughout kinetics experiments (to 26 hrs) with lipoplexes or SPLPs) |
| --- | --- | --- | --- | --- | --- | --- | --- | --- | --- | --- | --- | --- | --- | --- | --- | --- | --- | --- |
| N.N.[Cl][Pt][Cl] [Cisplatin] | improved expression |  |  |  |  |  |  |  |  |  |  |  |  |  |  |  |  |  |
| CC[C@]1(O)C[C@H]2CN(CCc3c([nH]c4ccccc34)[C@@](C(=O)OC)(c3cc4c(cc3OC)N(C=O)[C@H]3[C@@](O)(C(=O)OC)[C@H](OC(C)=O)[C@]5(CC)C=CCN6CC[C@]43[C@@H]65)C2)C1 [Vincristine] | not found to be effective | Tumor growth is inhibited and regression in tumor size is visible | inhibits growth of tumors and promotes tumor regression to a significantly greater degree |  |  |  |  |  |  |  |  |  |  |  |  |  |  |  |
| C[C@@]1(CO)[C@H](O)CC[C@@]2(C)[C@H]1CC[C@H]1C[C@@H]3C[C@@]12CC[C@]3(O)CO [aphidicolin] |  |  |  | did not significantly affect | approximately 10 hours | 12 h | 8 fold | 20 fold | 3 fold | 20 fold | did not differ significantly | approximately 40 fold | no significant difference | does not affect the internalization of lipoplexes | approximately 85% | ~45% | approximately 95% | 95% |
